Reference: patent publication US20250154144A1 (CHILDREN'S HOSPITAL MEDICAL CENTER, priority 2021, published 2025)
Read-outs that look alike come from different tables or passages of the source. Values belong to the compound of their own block, whether it stands above or below them.

Columns and labels:
IRAK4 = molecular target: T1, IRAK4 (Homo sapiens, UniProt Q9NWZ3); test: RBC HotSpot Kinase Assay, IRAK4
T1 sequence (Q9NWZ3 1-460): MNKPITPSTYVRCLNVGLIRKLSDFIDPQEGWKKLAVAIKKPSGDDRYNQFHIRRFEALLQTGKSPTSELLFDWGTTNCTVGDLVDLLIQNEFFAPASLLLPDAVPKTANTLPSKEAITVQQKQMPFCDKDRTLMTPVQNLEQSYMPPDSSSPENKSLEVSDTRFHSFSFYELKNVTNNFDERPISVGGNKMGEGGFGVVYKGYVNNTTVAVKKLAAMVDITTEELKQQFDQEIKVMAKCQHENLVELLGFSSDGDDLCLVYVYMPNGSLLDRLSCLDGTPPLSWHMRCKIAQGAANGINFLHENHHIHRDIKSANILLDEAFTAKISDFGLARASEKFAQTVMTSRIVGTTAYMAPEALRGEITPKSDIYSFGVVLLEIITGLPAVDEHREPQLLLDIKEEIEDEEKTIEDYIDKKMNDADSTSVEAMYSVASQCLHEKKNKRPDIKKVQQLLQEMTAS

IRAK1 = IRAK1 (Homo sapiens, UniProt P51617); test: RBC HotSpot Kinase Assay, IRAK1
FLT3 = molecular target: T2, FLT3 (Homo sapiens, UniProt P36888); test: RBC HotSpot Kinase Assay, FLT3
T2 sequence (P36888 610-943 limits assumed): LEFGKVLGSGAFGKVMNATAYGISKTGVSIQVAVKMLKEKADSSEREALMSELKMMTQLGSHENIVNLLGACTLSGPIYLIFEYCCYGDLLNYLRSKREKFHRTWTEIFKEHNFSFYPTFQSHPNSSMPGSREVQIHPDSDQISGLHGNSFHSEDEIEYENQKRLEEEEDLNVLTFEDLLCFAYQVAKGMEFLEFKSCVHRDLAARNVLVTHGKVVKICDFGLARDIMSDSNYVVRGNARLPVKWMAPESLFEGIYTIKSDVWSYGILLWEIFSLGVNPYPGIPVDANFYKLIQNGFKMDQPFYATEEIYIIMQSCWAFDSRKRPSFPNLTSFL

THP1 cells = test: Combination drug screening, Cell Titer Glo, 10 × 10 matrix, THP1 cells; type: cell-based; conditions: THP1 cells; for Excess HSA Score: 10 × 10
MOLM14(D835Y) cells = type: cell-based; conditions: MOLM14(D835Y) cells; for Excess HSA Score: 10 × 10
[1] = combination with (+)-BAY-1251152
[2] = combination with Eprenetapopt/APR-246
[3] = combination with Venetoclax (ABT-199)

Chain of IRAK1 (P51617 whole entry): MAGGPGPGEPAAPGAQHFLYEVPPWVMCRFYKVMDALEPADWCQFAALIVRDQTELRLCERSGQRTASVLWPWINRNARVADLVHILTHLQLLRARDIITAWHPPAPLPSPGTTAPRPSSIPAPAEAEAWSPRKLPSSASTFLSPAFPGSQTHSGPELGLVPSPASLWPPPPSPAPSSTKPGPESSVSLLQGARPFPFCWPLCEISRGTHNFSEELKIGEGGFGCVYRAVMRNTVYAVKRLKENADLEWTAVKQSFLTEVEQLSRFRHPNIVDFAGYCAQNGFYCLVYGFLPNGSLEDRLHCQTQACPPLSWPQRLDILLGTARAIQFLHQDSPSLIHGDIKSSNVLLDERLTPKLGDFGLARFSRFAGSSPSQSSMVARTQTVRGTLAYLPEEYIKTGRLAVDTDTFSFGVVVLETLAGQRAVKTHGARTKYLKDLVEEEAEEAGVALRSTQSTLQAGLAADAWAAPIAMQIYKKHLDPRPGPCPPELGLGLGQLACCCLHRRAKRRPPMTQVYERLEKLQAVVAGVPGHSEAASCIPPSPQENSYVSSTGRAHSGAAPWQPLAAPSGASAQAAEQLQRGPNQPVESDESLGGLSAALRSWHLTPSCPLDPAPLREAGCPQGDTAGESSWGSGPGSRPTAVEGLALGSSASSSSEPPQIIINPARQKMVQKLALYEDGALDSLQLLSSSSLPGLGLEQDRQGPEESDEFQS

IC50 (IRAK4; read-out: IRAK4 IC50): < 0.5 nM
IC50 (IRAK1; read-out: IRAK1 IC50): < 0.5 nM
IC50 (FLT3; read-out: FLT3 IC50): < 0.5 nM
Compound: COc1cc2ncc(-c3ccnc(N[C@@H]4CCCNC4)n3)n2cc1C(C)(O)C(F)(F)F (single isomer, unassigned) [Compound 59]
Excess HSA Score (THP1 cells; [1]): −945.9
Excess HSA Score (THP1 cells; combination with AMG-232): 249.9
Excess HSA Score (THP1 cells; combination with AZD-5363): −164.6
Excess HSA Score (THP1 cells; [2]): 269.2
Excess HSA Score (THP1 cells; combination with Ivosidenib): 205.2
Excess HSA Score (THP1 cells; combination with Lenalidomide): 30.374
Excess HSA Score (THP1 cells; combination with Palbociclib): −620.1
Excess HSA Score (THP1 cells; combination with Prednisolone): 486.6
Excess HSA Score (THP1 cells; combination with SNDX-5613): 68.13
Excess HSA Score (THP1 cells; combination with TNO-155): 213.8
Excess HSA Score (THP1 cells; combination with Trametinib): −374.5
Excess HSA Score (THP1 cells; combination with Ulixertinib): 164.2711
Excess HSA Score (THP1 cells; [3]): −1422
Comments (THP1 cells; combination with Lenalidomide): Antagonistic
Comments (THP1 cells; [3]): Synergistic
Excess HSA Score (MOLM14(D835Y) cells; [1]): −448.2
Excess HSA Score (MOLM14(D835Y) cells; combination with AMG-232): −416.2
Excess HSA Score (MOLM14(D835Y) cells; combination with AZD-5363): −316.4244
Excess HSA Score (MOLM14(D835Y) cells; [2]): −22.76
Excess HSA Score (MOLM14(D835Y) cells; combination with Ivosidenib): 107.6
Excess HSA Score (MOLM14(D835Y) cells; combination with Lenalidomide): 395.8
Excess HSA Score (MOLM14(D835Y) cells; combination with Palbociclib): −185.3
Excess HSA Score (MOLM14(D835Y) cells; combination with Prednisolone): 66.52
Excess HSA Score (MOLM14(D835Y) cells; combination with SNDX-5613): 130.9
Excess HSA Score (MOLM14(D835Y) cells; combination with TNO-155): −722.6
Excess HSA Score (MOLM14(D835Y) cells; combination with Trametinib): −383
Excess HSA Score (MOLM14(D835Y) cells; combination with Ulixertinib): −473
Excess HSA Score (MOLM14(D835Y) cells; [3]): −1215
Comments (MOLM14(D835Y) cells; combination with Prednisolone): Antagonistic
Comments (MOLM14(D835Y) cells; [3]): Synergistic

IC50 (IRAK4; IRAK4 IC50): < 0.5 nM
IC50 (IRAK1; IRAK1 IC50): < 0.5 nM
IC50 (FLT3; FLT3 IC50): < 0.5 nM
Compound: COc1cc2ncc(-c3cncc(N[C@H]4CNC[C@@H]4F)n3)n2cc1C(C)(O)C(F)(F)F (single isomer, unassigned) [Compound 61]

IC50 (IRAK4; read-out: IRAK4 IC50): < 0.5 nM
IC50 (IRAK1; IRAK1 IC50): 2 nM
IC50 (FLT3; read-out: FLT3 IC50): < 0.5 nM
Compound: COc1cc2ncc(-c3cncc(N[C@H]4CNC[C@@H]4F)n3)n2cc1C(C)(O)C(F)(F)F (single isomer, unassigned) [Compound 62]

IC50 (IRAK4; IRAK4 IC50): 0.7 nM
IC50 (IRAK1; IRAK1 IC50): 2 nM
IC50 (FLT3; FLT3 IC50): < 0.5 nM
Compound: COc1cc2ncc(-c3cncc(N[C@@H]4CCCNC4)n3)n2cc1C(C)(O)C(F)(F)F (single isomer, unassigned) [Compound 63]

IC50 (IRAK4; IRAK4 IC50): < 0.5 nM
IC50 (IRAK1; IRAK1 IC50): 1 nM
IC50 (FLT3; read-out: FLT3 IC50): < 0.5 nM
Compound: COc1cc2ncc(-c3cncc(N[C@@H]4CCCNC4)n3)n2cc1C(C)(O)C(F)(F)F (single isomer, unassigned) [Compound 64]

IC50 (IRAK4; IRAK4 IC50): < 0.5 nM
IC50 (IRAK1; IRAK1 IC50): < 0.5 nM
IC50 (FLT3; FLT3 IC50): < 0.5 nM
Compound: COc1cc2ncc(-c3cncc(N[C@H]4CNCC[C@@H]4F)n3)n2cc1C(C)(O)C(F)(F)F (single isomer, unassigned) [Compound 65]

IC50 (IRAK4; read-out: IRAK4 IC50): < 0.5 nM
IC50 (IRAK1; read-out: IRAK1 IC50): < 0.5 nM
IC50 (FLT3; read-out: FLT3 IC50): < 0.5 nM
Compound: COc1cc2ncc(-c3cncc(N[C@H]4CNCC[C@@H]4F)n3)n2cc1C(C)(O)C(F)(F)F (single isomer, unassigned) [Compound 66]

IC50 (IRAK4; IRAK4 IC50): 367 nM
IC50 (IRAK1; IRAK1 IC50): 1020 nM
IC50 (FLT3; FLT3 IC50): 6 nM
Compound: COc1cc2ncc(-c3cncc(N[C@H]4CNCC[C@@H]4F)n3)n2nc1C(C)(O)C(F)(F)F (single isomer, unassigned) [Compound 79]

IC50 (IRAK4; IRAK4 IC50): 406 nM
IC50 (IRAK1; IRAK1 IC50): 1120 nM
IC50 (FLT3; FLT3 IC50): < 0.5 nM
Compound: COc1cc2ncc(-c3cncc(N[C@H]4CNCC[C@@H]4F)n3)n2nc1C(C)(O)C(F)(F)F (single isomer, unassigned) [Compound 80]

IC50 (IRAK4; IRAK4 IC50): 2540 nM
IC50 (IRAK1; IRAK1 IC50): 7900 nM
IC50 (FLT3; FLT3 IC50): 8 nM
Compound: COc1cc2ncc(-c3cncc(N[C@H]4CNC[C@@H]4F)n3)n2nc1C(C)(O)C(F)(F)F (single isomer, unassigned) [Compound 81]

IC50 (IRAK4; IRAK4 IC50): 2040 nM
IC50 (IRAK1; IRAK1 IC50): 5440 nM
IC50 (FLT3; FLT3 IC50): 67 nM
Compound: COc1cc2ncc(-c3cncc(N[C@@H]4CCCNC4)n3)n2nc1C(C)(O)C(F)(F)F (single isomer, unassigned) [Compound 82]

IC50 (IRAK4; IRAK4 IC50): 544 nM
IC50 (IRAK1; IRAK1 IC50): 4690 nM
IC50 (FLT3; FLT3 IC50): 1 nM
Compound: COc1cc2ncc(-c3cncc(N[C@H]4CNC[C@@H]4F)n3)n2nc1C(C)(O)C(F)(F)F (single isomer, unassigned) [Compound 83]

IC50 (IRAK4; IRAK4 IC50): 512 nM
IC50 (IRAK1; IRAK1 IC50): 3020 nM
IC50 (FLT3; FLT3 IC50): 2 nM
Compound: COc1cc2ncc(-c3cncc(N[C@@H]4CCCNC4)n3)n2nc1C(C)(O)C(F)(F)F (single isomer, unassigned) [Compound 84]

IC50 (IRAK4; IRAK4 IC50): < 0.5 nM
IC50 (IRAK1; IRAK1 IC50): < 0.5 nM
IC50 (FLT3; FLT3 IC50): < 0.5 nM
Compound: COc1cc2ncc(-c3ccnc(N[C@H]4CNCC[C@@H]4F)n3)n2cc1C(C)(O)C(F)(F)F (stereo partly drawn) [Compound 60]

Continued, compound first:

Compound: COc1cc2ncc(-c3ccnc(N[C@H]4CNC[C@@H]4F)n3)n2cc1C(C)(O)C(F)(F)F (single isomer, unassigned) [Compound 55]
IC50 (IRAK4; IRAK4 IC50): < 0.5 nM
IC50 (IRAK1; IRAK1 IC50): < 0.5 nM
IC50 (FLT3; FLT3 IC50): < 0.5 nM

Compound: COc1cc2ncc(-c3ccnc(N[C@H]4CNC[C@@H]4F)n3)n2cc1C(C)(O)C(F)(F)F (single isomer, unassigned) [Compound 56]
IC50 (IRAK4; read-out: IRAK4 IC50): < 0.5 nM
IC50 (IRAK1; read-out: IRAK1 IC50): < 0.5 nM
IC50 (FLT3; read-out: FLT3 IC50): < 0.5 nM

Compound: COc1cc2ncc(-c3ccnc(N[C@@H]4CCCNC4)n3)n2cc1C(C)(O)C(F)(F)F (single isomer, unassigned) [Compound 57]
IC50 (IRAK4; IRAK4 IC50): < 0.5 nM
IC50 (IRAK1; IRAK1 IC50): < 0.5 nM
IC50 (FLT3; FLT3 IC50): < 0.5 nM

Compound: CC(O)(c1cn2c(-c3ccnc(N[C@H]4CNCC[C@@H]4F)n3)cnc2cn1)C(F)(F)F (single isomer, unassigned) [Compound 58]
IC50 (IRAK4; IRAK4 IC50): < 0.5 nM
IC50 (IRAK1; IRAK1 IC50): 0.6 nM
IC50 (FLT3; FLT3 IC50): < 0.5 nM

Compound: CC(C)(O)c1ccc2ncc(-c3cncc(N[C@H]4CNC[C@@H]4F)n3)n2c1 [Compound 16, 2-(3-(6-(((3S,4S)-4-fluoropyrrolidin-3-yl)amino)pyrazin-2-yl)imidazo[1,2-a]pyridin-6-yl)propan-2-ol]
IC50 (IRAK4; IRAK4 IC50): 13 nM
IC50 (IRAK1; IRAK1 IC50): 237 nM
IC50 (FLT3; FLT3 IC50): 5 nM

Compound: CC(C)(O)c1ccc2ncc(-c3cncc(N[C@@H]4CCCNC4)n3)n2c1 [Compound 17, (R)-2-(3-(6-(piperidin-3-ylamino)pyrazin-2-yl)imidazo[1,2-a]pyridin-6-yl)propan-2-ol]
IC50 (IRAK4; IRAK4 IC50): 7 nM
IC50 (IRAK1; IRAK1 IC50): 105 nM
IC50 (FLT3; FLT3 IC50): 5 nM

Compound: COc1cc2ncc(-c3cncc(N[C@@H]4CCCNC4)n3)n2nc1C1CC1 [Compound 23, (R)-6-(6-cyclopropyl-7-methoxyimidazo[1,2-b]pyridazin-3-yl)-N-(piperidin-3-yl)pyrazin-2-amine]
IC50 (IRAK4; IRAK4 IC50): 1 nM
IC50 (IRAK1; IRAK1 IC50): 175 nM
IC50 (FLT3; FLT3 IC50): < 0.5 nM

Compound: F[C@H]1CNC[C@@H]1Nc1nccc(-c2cnc3cc(OC4CC4)ccn23)n1 [Compound 37, 4-(7-cyclopropoxyimidazo [1,2-a]pyridin-3-yl)-N-((3S,4S)-4-fluoropyrrolidin-3-yl)pyrimidin-2-amine]
IC50 (IRAK4; IRAK4 IC50): 1 nM
IC50 (IRAK1; IRAK1 IC50): 13 nM
IC50 (FLT3; FLT3 IC50): < 0.5 nM

Compound: CC(C)(O)c1ccc2ncc(-c3ccnc(N[C@H]4CNC[C@@H]4F)n3)n2c1 [Compound 40, 2-(3-(2-(((3S,4S)-4-fluoropyrrolidin-3-yl)amino)pyrimidin-4-yl)imidazo[1,2-a]pyridin-6-yl)propan-2-ol]
IC50 (IRAK4; IRAK4 IC50): 1 nM
IC50 (IRAK1; IRAK1 IC50): 79 nM
IC50 (FLT3; FLT3 IC50): < 0.5 nM

Compound: CC(C)(O)c1ccc2ncc(-c3ccnc(N[C@@H]4CCCNC4)n3)n2c1 [Compound 41, (R)-2-(3-(2-(piperidin-3-ylamino)pyrimidin-4-yl)imidazo[1,2-a]pyridin-6-yl)propan-2-ol]
IC50 (IRAK4; IRAK4 IC50): 8 nM
IC50 (IRAK1; IRAK1 IC50): 124 nM
IC50 (FLT3; FLT3 IC50): 1 nM
